Results: US20250241948A1, “Engineered Extracellular Vesicle Delivery Systems and Uses Thereof” (The Texas A&M University System, priority 2020, published 2025)

What was measured:
Type in all cases: cell-based, human
[1] = test system: GFP-expressing A549 cells; assay: siRNA-mediated GFP knockdown; settings: lipid-siRNA complexes following electroporation, no EV
Procedure: Quantification of siRNA knockdown in A549 cells: To evaluate the knockdown efficiency of EV-mediated siRNA delivery within the constitutively expressing-GFP-A549 cells over time, GFP fluorescence was measured and quantified using a plate reader (Cytation 5) every day for 12 days (34). To ensure the decrease of green fluorescence intensity is due to the RNA interference of GFP-siRNA in the cells and not caused by the cytotoxicity of the delivery system, each sample type or condition was delivered with scrambled siRNA as a control. The knockdown efficiency was calculated using the below equation: […]
where Fsi is the fluorescence of the well using GFP-siRNA, Fsc is the fluorescence of the well using corresponding scrambled siRNA, Fbg is the fluorescence background of the media without cells, Fosi is the initial fluorescence of the well just prior to delivery for the GFP-siRNA formulations and Fosc is the initial fluorescence of the well prior to delivery of the corresponding scrambled siRNA control group. Commercial Lipofectamine® RNAiMax formulation was used as a positive control to compare the knockdown efficiency between samples. The formulation was prepared according to the manufacturer's instruction. Briefly, 0.3 μl of Lipofectamine® RNAiMax was used to deliver 1 pmol of siRNA. […] Area under the curve (knockdown efficiency vs time) was calculated to determine the difference in duration using GraphPad Prism 7 software.
siRNA knockdown efficiency: To evaluate the knockdown efficiency of LbL-EV mediated siRNA delivery within GFP-expressing A549 cells, GFP fluorescence was measured and quantified using the same apparatus (Cytation 5) every day as previously described (34, 63). The knockdown efficiency of siRNA-GFP was calculated by normalizing each sample type/condition to each individual negative control treated with scrambled siRNA. […] Area under the curve (knockdown efficiency vs time) was calculated by GraphPad Prism 7 software to determine the overall knockdown efficiency of each condition. […]

A549 cells = assay: DOX cancer killing efficiency (MTS assay); settings: A549, 3 days incubation
Procedure: (§1) DOX cancer killing efficiency: The effects of DOX-loaded vesicles on A549/CCL210 cells were done by CellTiter 96® Aqueous Cell Proliferation assay (Promega) (MTS assay) to assess relative metabolic activity of the cells. Prior to MTS treatment, DOX-loaded vesicles were incubated with cultured A549/CCL210 cells at 60-70% confluency for 3 days at varying doses. The MTS assays were conducted after incubation for 3 days, following the manufacturer's instructions. Untreated A549 or CCL210 cells were used as positive control groups (assuming 100% metabolic activity) for normalization. Free DOX (unencapsulated) and DOX-loaded PLGA NPs were prepared as comparison groups. To obtain dose-response curves, metabolic activity was plotted versus the amount of DOX administered, which was determined based on spectrophotometric analysis of eEV/LbL-eEV/PLGA NPs. The sigmoidal dose-response curves were fitted with Hill's equation using GraphPad software: […]
(§2) where Max is the Y value at the top plateau and Min is the Y value at the bottom plateau. IC50 (inhibitory concentration, 50%) is the X value when the response is halfway between Min and Max.

CCL-210 cells = assay: DOX cancer killing efficiency (MTS assay); settings: CCL210, 3 days incubation
Procedure: as §1, §2

CCCCCCCCCCCCCCCC(=O)OC[C@H](COP(=O)([O-])OCC[N+](C)(C)C)OC(=O)CCCCCCCCCCCCCCC [DPPC, 1,2-dipalmitoyl-sn-glycero-3-phosphocholine]
GFP down-regulation by lipid-siRNA complexes [1]: not able to down-regulate GFP expression

COc1cccc2c1C(=O)c1c(O)c3c(c(O)c1C2=O)C[C@@](O)(C(=O)CO)C[C@@H]3O[C@H]1C[C@H](N)[C@H](O)[C@H](C)O1 [Free DOX, doxorubicin]
IC10 of DOX (A549 cells): 0.510 μ/ml
IC90 of DOX (A549 cells): 0.690 μ/ml
IC10 of DOX (CCL-210 cells): 0.200 μ/ml
IC50 of DOX (CCL-210 cells): 0.400 ± 0.024 μ/ml
IC90 of DOX (CCL-210 cells): 0.780 μ/ml

CCCCCCCC/C=C\CCCCCCCC(=O)O[C@H](COC(=O)CCCCCCCCCCCCCCC)COP(=O)([O-])OCC[N+](C)(C)C [POPC, 1-Palmitoyl-2-oleoyl-sn-glycero-3-phosphocholine]
GFP down-regulation by lipid-siRNA complexes [1]: not able to down-regulate GFP expression

CCCCCCCC/C=C\CCCCCCCC(=O)O[C@H](COC(=O)CCCCCCCCCCCCCCC)COP(=O)(O)OCC(O)CO (some centres unmarked) [POPG, 1-Palmitoyl-2-oleoyl-sn-glycero-3-phosphoglycerol]
GFP down-regulation by lipid-siRNA complexes [1]: not able to down-regulate GFP expression
